Reference: PubChem BioAssay AID248 (DTP/NCI, 2004)
Several values for one entry are separate records, joined by “and”; a condition that tells them apart may be missing. Identical values can stand only once. Toxic doses and inconclusive results are not listed. Rule as the data show it: active = T/C of 150% or more; inactive = T/C below 125%.

Test system: L1210 leukemia ip in BDF1 mice, survival T/C
Assay: NCI In Vivo Anticancer Drug Screen. Data for tumor model L1210 Leukemia (intraperitoneal) in B6D2F1 (BDF1) mice
Details: endpoint: mean survival time, higher = longer survival
In short: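 Mice bearing the transplanted tumor received compound or vehicle. Survival of the treated group was divided by that of the vehicle-treated control group to give the ratio.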

[1] = dose: 50.0 mg/kg/injection, schedule: Q01DX001 (ip), vehicle: saline
[2] = dose: 100.0 mg/kg/injection, schedule: Q01DX001 (ip), vehicle: saline
[3] = dose: 200.0 mg/kg/injection, schedule: Q01DX001 (ip), vehicle: saline
[4] = dose: 400.0 mg/kg/injection, schedule: Q01DX001 (ip), vehicle: saline
[5] = dose: 100.0 mg/kg/injection, schedule: Q01DX009 (ip), vehicle: Klucel (hydroxypropylcellulose) (HPC)
[6] = dose: 200.0 mg/kg/injection, schedule: Q01DX009 (ip), vehicle: Klucel (hydroxypropylcellulose) (HPC)
[7] = dose: 400.0 mg/kg/injection, schedule: Q01DX009 (ip), vehicle: Klucel (hydroxypropylcellulose) (HPC)
[8] = dose: 100.0 mg/kg/injection, schedule: Q01DX001 (ip), vehicle: Klucel (hydroxypropylcellulose) (HPC)
[9] = dose: 200.0 mg/kg/injection, schedule: Q01DX001 (ip), vehicle: Klucel (hydroxypropylcellulose) (HPC)
[10] = dose: 100.0 mg/kg/injection, schedule: Q04DX003 (ip), vehicle: saline with Tween-80
[11] = dose: 200.0 mg/kg/injection, schedule: Q04DX003 (ip), vehicle: saline with Tween-80
[12] = dose: 100.0 mg/kg/injection, schedule: Q04DX002 (ip), vehicle: saline with Tween-80
[13] = dose: 100.0 mg/kg/injection, schedule: Q01DX009 (ip), vehicle: saline with Tween-80
[14] = dose: 200.0 mg/kg/injection, schedule: Q01DX009 (ip), vehicle: saline with Tween-80
[15] = dose: 400.0 mg/kg/injection, schedule: Q01DX009 (ip), vehicle: saline with Tween-80

Measured: T/C

CC(=O)Oc1cc(C)cc(OC(C)=O)n1
inactive: [1] 104 % of control | [2] 98 % of control | [3] 98 % of control | [4] 96 % of control

CN(CC(C)(C)C(O)c1ccccc1)C(=O)c1ccccc1 (stereo not drawn)
inactive: dose: 100.0 mg/kg/injection, schedule: Q04DX003 (ip), vehicle: saline 102 % of control | dose: 200.0 mg/kg/injection, schedule: Q04DX003 (ip), vehicle: saline 100 % of control | dose: 400.0 mg/kg/injection, schedule: Q04DX003 (ip), vehicle: saline 96 % of control

CC1CCCCN1P(c1ccccc1)N1CCCCC1C (stereo not drawn)
inactive: dose: 100.0 mg/kg/injection, schedule: Q04DX002 (sc), vehicle: olive oil, sesame oil, peanut oil 97 % of control | dose: 200.0 mg/kg/injection, schedule: Q04DX002 (sc), vehicle: olive oil, sesame oil, peanut oil 113 % of control | dose: 400.0 mg/kg/injection, schedule: Q04DX002 (sc), vehicle: olive oil, sesame oil, peanut oil 107 % of control

CNC(=O)OCC1=CC(=O)C(OC)=CC1=O
inactive: dose: 0.37 mg/kg/injection, schedule: Q01DX009 (ip), vehicle: Klucel (hydroxypropylcellulose) (HPC) 91 % of control | dose: 0.75 mg/kg/injection, schedule: Q01DX009 (ip), vehicle: Klucel (hydroxypropylcellulose) (HPC) 98 % of control | dose: 12.5 mg/kg/injection, schedule: Q04DX003 (ip), vehicle: Klucel (hydroxypropylcellulose) (HPC) 92 % of control | dose: 25.0 mg/kg/injection, schedule: Q01DX009 (ip), vehicle: Klucel (hydroxypropylcellulose) (HPC) 88 % of control | dose: 25.0 mg/kg/injection, schedule: Q04DX003 (ip), vehicle: Klucel (hydroxypropylcellulose) (HPC) 103 % of control

COc1cc(C=O)ccc1OC(=O)Nc1cc([N+](=O)[O-])ccc1F
inactive: [5] 97 % of control | [6] 93 % of control | [7] 92 % of control

O=[N+]([O-])c1ccc(CS(=O)Cc2ccccc2)cc1 (stereo not drawn)
inactive: dose: 75.0 mg/kg/injection, schedule: Q01DX001 (ip), vehicle: carboxymethylcellulose (CMC) 91 % of control | dose: 150.0 mg/kg/injection, schedule: Q01DX001 (ip), vehicle: carboxymethylcellulose (CMC) 100 % of control | dose: 300.0 mg/kg/injection, schedule: Q01DX001 (ip), vehicle: carboxymethylcellulose (CMC) 100 % of control

O=[N+]([O-])CCCl
inactive: dose: 2.5 mg/kg/injection, schedule: Q04DX003 (ip), vehicle: Klucel (hydroxypropylcellulose) (HPC) 104 % of control | dose: 5.0 mg/kg/injection, schedule: Q01DX009 (ip), vehicle: saline 105 % of control | dose: 5.0 mg/kg/injection, schedule: Q04DX003 (ip), vehicle: Klucel (hydroxypropylcellulose) (HPC) 103 % of control | dose: 10.0 mg/kg/injection, schedule: Q01DX009 (ip), vehicle: saline 106 % of control | dose: 10.0 mg/kg/injection, schedule: Q04DX003 (ip), vehicle: Klucel (hydroxypropylcellulose) (HPC) 95 % of control | dose: 20.0 mg/kg/injection, schedule: Q01DX009 (ip), vehicle: saline 117 % of control | dose: 20.0 mg/kg/injection, schedule: Q04DX003 (ip), vehicle: Klucel (hydroxypropylcellulose) (HPC) 89 % of control

NS(=O)(=O)c1ccc(NC(=O)Nc2cccc(CNC(=O)Cc3ccc(Cl)cc3C(=O)O)c2)cc1
inactive: dose: 50.0 mg/kg/injection, schedule: Q01DX001 (ip), vehicle: Klucel (hydroxypropylcellulose) (HPC) 104 % of control | [8] 109 % of control | [9] 90 % of control

O=S1C(c2ccccc2)CC1c1ccccc1 (stereo not drawn)
inactive: dose: 100.0 mg/kg/injection, schedule: Q04DX003 (ip), vehicle: Klucel (hydroxypropylcellulose) (HPC) 100 % of control | dose: 200.0 mg/kg/injection, schedule: Q04DX003 (ip), vehicle: Klucel (hydroxypropylcellulose) (HPC) 105 % of control | dose: 400.0 mg/kg/injection, schedule: Q04DX003 (ip), vehicle: Klucel (hydroxypropylcellulose) (HPC) 96 % of control

O=C(O)c1cc([N+](=O)[O-])ccc1Cl
inactive: dose: 100.0 mg/kg/injection, schedule: Q04DX002 (ip), vehicle: Klucel (hydroxypropylcellulose) (HPC) 117 % of control | dose: 200.0 mg/kg/injection, schedule: Q04DX002 (ip), vehicle: Klucel (hydroxypropylcellulose) (HPC) 103 % of control | dose: 400.0 mg/kg/injection, schedule: Q04DX002 (ip), vehicle: Klucel (hydroxypropylcellulose) (HPC) 98 % of control

O=C1CCc2cccc(O)c2N1
inactive: [2] 103 % of control | [3] 103 % of control

CCCCCCCCCCCCCCCCNCCCN
inactive: [10] 98 % of control | [11] 96 % of control

CCC[CH2][Ge]([CH2]CCC)[O][Ge]([CH2]CCC)[CH2]CCC
inactive: [12] 87 % of control

OCC1OC(n2cncn2)C(O)C1O (stereo not drawn)
inactive: dose: 100.0 mg/kg/injection, schedule: Q01DX005 (ip), vehicle: saline 102 % of control and 111 % of control

COc1ccc(NC(C)=O)c(C)c1
inactive: [13] 99 % of control | [10] 112 % of control | [14] 96 % of control | [11] 119 % of control | [15] 103 % of control | dose: 400.0 mg/kg/injection, schedule: Q04DX003 (ip), vehicle: saline with Tween-80 96 % of control

CN1CCC(=O)c2ccccc21
inactive: dose: 75.0 mg/kg/injection, schedule: Q01DX001 (ip), vehicle: other 97 % of control | dose: 150.0 mg/kg/injection, schedule: Q01DX001 (ip), vehicle: other 100 % of control | dose: 300.0 mg/kg/injection, schedule: Q01DX001 (ip), vehicle: other 100 % of control

CCNc1nnc(N=Nc2ccccc2)s1
inactive: dose: 12.5 mg/kg/injection, schedule: Q01DX009 (ip), vehicle: saline with Tween-80 97 % of control | dose: 25.0 mg/kg/injection, schedule: Q01DX009 (ip), vehicle: saline with Tween-80 102 % of control and 92 % of control | dose: 50.0 mg/kg/injection, schedule: Q01DX009 (ip), vehicle: saline with Tween-80 86 % of control | [13] 91 % of control | dose: 200.0 mg/kg/injection, schedule: Q04DX002 (ip), vehicle: saline with Tween-80 98 % of control | [15] 91 % of control | dose: 400.0 mg/kg/injection, schedule: Q04DX002 (ip), vehicle: saline with Tween-80 98 % of control
active: [12] 170 % of control

CC(C)C(O)c1cnc(OCc2ccccc2)nc1OCc1ccccc1 (stereo not drawn)
inactive: [5] 96 % of control | dose: 100.0 mg/kg/injection, schedule: Q04DX003 (ip), vehicle: other 98 % of control | [6] 101 % of control | dose: 200.0 mg/kg/injection, schedule: Q04DX003 (ip), vehicle: other 103 % of control | [7] 101 % of control | dose: 400.0 mg/kg/injection, schedule: Q04DX003 (ip), vehicle: other 103 % of control

Cc1ccc(NC(=O)Nc2cccc3ccccc23)cc1
inactive: dose: 12.0 mg/kg/injection, schedule: Q01DX009 (ip), vehicle: gum acacia 108 % of control | dose: 12.5 mg/kg/injection, schedule: Q04DX003 (ip), vehicle: gum acacia 91 % of control | dose: 25.0 mg/kg/injection, schedule: Q01DX009 (ip), vehicle: gum acacia 103 % of control | dose: 25.0 mg/kg/injection, schedule: Q04DX003 (ip), vehicle: gum acacia 93 % of control | dose: 50.0 mg/kg/injection, schedule: Q01DX009 (ip), vehicle: gum acacia 94 % of control | dose: 50.0 mg/kg/injection, schedule: Q04DX003 (ip), vehicle: gum acacia 98 % of control

Cc1ccc(-c2ccc(-c3ccc(C)cc3)o2)cc1
inactive: [8] 95 % of control | [9] 102 % of control and 90 % of control | dose: 400.0 mg/kg/injection, schedule: Q01DX001 (ip), vehicle: Klucel (hydroxypropylcellulose) (HPC) 94 % of control

O=C(Nc1ccccc1)C(CCCCN1C(=O)c2ccccc2C1=O)N1C(=O)c2ccccc2C1=O (stereo not drawn)
inactive: [5] 95 % of control | [6] 106 % of control | [7] 100 % of control

O=C(c1ccc(-c2ccccc2)cc1)C1CC1
inactive: [5] 97 % of control | [6] 97 % of control | [7] 91 % of control

CCP(=S)(CC)CCCCP(=S)(CC)CC
inactive: [13] 94 % of control | [14] 89 % of control | [15] 86 % of control

CC(=O)OC(C)CC1CCCCC12OCCO2 (stereo not drawn)
inactive: [1] 103 % of control | [2] 108 % of control | [3] 100 % of control | [4] 108 % of control
